# Source: PubChem BioAssay AID1645865 (Buhrlage Lab, Dana-Farber Cancer Institute and Novartis …, 2021)
# Calls of active or inactive are those of the source.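 The calls were made as follows: active = maximal inhibition of the USP30 enzyme reaching 30% or more across the dose series; inactive = the rest.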
# Molecular target: Ubiquitin carboxyl-terminal hydrolase 30 (Homo sapiens) (UniProt Q70CQ3)
# Test: inhibitors of ubiquitin-specific protease 30 deubiquitylating enzyme, concentration dependence, in vitro biochemical, validation of primary hits (AID 1645865)
# Details: purified USP30, Ub-rhodamine cleavage, fluorescence, 2 h
# Sequence of Ubiquitin carboxyl-terminal hydrolase 30 (Homo sapiens) (Q70CQ3 whole entry, looked up): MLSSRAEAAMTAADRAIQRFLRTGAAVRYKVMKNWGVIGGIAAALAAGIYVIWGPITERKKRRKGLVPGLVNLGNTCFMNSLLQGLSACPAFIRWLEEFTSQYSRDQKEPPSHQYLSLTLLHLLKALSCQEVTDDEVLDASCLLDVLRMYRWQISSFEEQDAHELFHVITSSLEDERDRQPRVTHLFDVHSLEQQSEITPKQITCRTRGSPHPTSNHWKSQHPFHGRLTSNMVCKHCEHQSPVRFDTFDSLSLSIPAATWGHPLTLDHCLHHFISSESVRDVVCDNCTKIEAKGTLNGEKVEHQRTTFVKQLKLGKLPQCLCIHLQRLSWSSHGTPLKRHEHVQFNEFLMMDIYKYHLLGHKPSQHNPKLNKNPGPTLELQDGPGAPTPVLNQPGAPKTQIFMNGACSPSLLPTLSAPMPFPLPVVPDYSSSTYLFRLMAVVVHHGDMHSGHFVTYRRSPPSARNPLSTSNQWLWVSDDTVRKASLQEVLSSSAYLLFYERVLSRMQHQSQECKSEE
row,SMILES,IC50
1,COc1ccc(Nc2nc3c(S(=O)(=O)c4ccc(C)cc4)nnn3c3ccsc23)c(OC)c1,0.401 µM
2,COc1ccc(NC(=O)Cn2c(CS(=O)(=O)c3ccc(C)cc3)nc3ccccc32)cc1,7.12 µM
3,COc1ccc(-n2c(=O)c(CCC(=O)O)nc3ccccc32)cc1,> 50 µM (inactive)
4,O=C(Nc1ccncc1)c1ncoc1-c1cccc(Cl)c1,35.5 µM
5,N#C/C(=C\c1ccc(OCc2cccc(C(=O)O)c2)cc1)c1ccc(F)cc1,> 50 µM (inactive)
6,O=[N+]([O-])c1ccc(N2CCN(c3ncnc4c3[nH]c3ccc(F)cc34)CC2)cc1,0.156 µM
7,COc1ccc(CCNC(=O)c2noc3c2CCc2sccc2-3)cc1OC,39.9 µM
8,Cn1c(SCc2ccccc2)nnc1-c1csc(-c2ccccc2)n1,22.5 µM
9,CCOC(=O)c1c(C)oc2nc(CSc3ccccc3)[nH]c(=O)c12,> 50 µM (inactive)
10,Cc1ccc(Cn2c(=O)c3ccccc3n3c(CCC(=O)N4CCN(c5ccccn5)CC4)nnc23)cc1,3.41 µM
11,COC(=O)c1cc2c(ccn2C)n1CC(=O)NC1CC1,> 50 µM (inactive)
12,Cc1ccc(C2c3c(-c4ccccc4O)n[nH]c3C(=O)N2Cc2ccco2)cc1 (centres undefined),21.3 µM
13,COc1ccccc1-c1nc2c3c(ncn2n1)Oc1c(c(C)nn1-c1ccccc1)C3c1cccnc1 (centres undefined),2.85 µM
14,CCOC(=O)c1cnc(C(F)(F)F)nc1Sc1n[nH]c(-c2cccs2)n1,> 50 µM (inactive)
15,Cc1sc(NC(=O)CNc2ccccc2)nc1-c1ccc2c(c1)CCN2C(=O)C(C)C,> 50 µM (inactive)
16,COc1ccc(-c2nc(C)c(C(=O)NCc3ccc(S(N)(=O)=O)cc3)s2)cc1,> 50 µM (inactive)
17,CC[C@H](C)[C@H](NC(=O)[C@H]([C@@H](C)CC)N(C)C(C)=O)C(=O)N[C@H](C(=O)N[C@@H](CC(C)C)C(=O)C1(C)CO1)[C@@H](C)O (some centres undefined),> 50 µM (inactive)
18,O=C(Cc1noc2ccccc12)NCC(=O)Nc1ccc(Cl)cc1,21.6 µM
19,CCOc1ccccc1-c1nc(-c2nnn(Cc3ccccc3)c2C)no1,> 50 µM (inactive)
20,CCc1ccc2[nH]c3c(c(=O)c2c1)CN(CC(=O)NCc1ccc2c(c1)OCO2)CC3,35.5 µM
21,Cc1nn(Cc2ccccc2)c(Cl)c1C(=O)NC1CCCc2ccccc21 (centres undefined),> 50 µM (inactive)
22,O=C(CSc1nnnn1-c1ccccc1)Nc1ccccc1,31.9 µM
23,Cn1nccc1C(=O)N1CCCCC1c1ncc(Cc2ccc(Cl)cc2)o1 (centres undefined),> 50 µM (inactive)
24,O=C(OCCCN1C(=O)c2cccc3c(N4CCCCC4)ccc(c23)C1=O)c1ccccn1,> 50 µM (inactive)

row,SMILES,IC50
1,CC(C(=O)Nc1ccccc1)n1cnc2nc(N3CCCCC3)ncc2c1=O (centres undefined),> 50 µM (inactive)
2,O=C(CSc1nnc(-c2ccncc2)n1Cc1ccccc1)c1ccc2[nH]c(O)cc2c1,> 50 µM (inactive)
3,CC(=O)Nc1ccc(S(=O)(=O)NCc2ccc(C(=O)NCCc3ccc(Cl)cc3)cc2)cc1,1.71 µM
4,Cc1ccc(-n2c(-c3ccccc3)cn3c4c(=O)[nH]c(=O)n(C)c4nc23)cc1Cl,0.222 µM
5,O=C(NCc1cccnc1)c1cnn2c(C(F)(F)F)cc(-c3ccc(F)cc3)nc12,23.3 µM
6,CC(=O)c1cccc(NC(=O)c2ccc(-c3csc(C)n3)cc2)c1,> 50 µM (inactive)
7,O=C(Nc1ccc(N2CCOCC2)cc1)c1ccc(-c2ccc(N3CCCC3)nn2)cc1,> 50 µM (inactive)
8,Cc1ccc(Cl)cc1NC(=O)c1cc(-c2ccccn2)n[nH]1,6.42 µM
9,c1csc(-c2nc(Nc3ccc4c(c3)CCC4)c3ccccc3n2)c1,4.91 µM
10,O=C(NC1CCCC1)C1CC(=O)N(c2cccc(-c3noc(-c4cccs4)n3)c2)C1 (centres undefined),> 50 µM (inactive)
11,COC(=O)c1cc(C)sc1NC(=O)c1cccc(OC)c1OC,> 50 µM (inactive)
12,CCC[C@H]1O[C@@H]2CC(=O)O[C@@H]2C2=C1C(=O)c1c(O)cccc1C2=O,> 50 µM (inactive)
13,COc1ccc(C)cc1NC(=O)Cc1csc(NC(=O)c2ccc(=O)[nH]c2)n1,> 50 µM (inactive)
14,CO/C1=C\C(C)=C/[C@@H](C)[C@@H](O)[C@@H](C)C/C(C)=C/C=C/[C@H](OC)[C@@H]([C@@H](C)[C@@H](O)[C@H](C)[C@@]2(O)C[C@@H](OC(=O)/C=C/C(N)=O)[C@H](C)[C@@H](C(C)C)O2)OC1=O,> 50 µM (inactive)
15,Cc1cccc(S(=O)(=O)N2CCc3nc4ccccc4n3CC2)c1,23.4 µM
16,Cc1ccc(CNC(=O)c2cccc(N3C(=O)N4CCc5c([nH]c6ccccc56)[C@@]4(C)C3=O)c2)cc1,15.3 µM
17,CO[C@H]1CC[C@H](O)c2c1oc1c3c4c(c(O)c1c2=O)-c1c(cc2c(Cl)c(C)n(N)c(=O)c2c1O)C[C@@H]4OCO3,47.3 µM
18,COc1ccc(-c2cc(-c3ccc(O)cc3)nc(N)c2C#N)cc1OC,> 50 µM (inactive)
19,Cc1ccccc1NC(=O)Cn1c(N2CCOCC2)nc2cc(C)n(C)c2c1=O,17.9 µM
20,Cc1cc2nc(/C=C/c3ccccc3)n(Cc3cccc(F)c3)c2cc1C,> 50 µM (inactive)
21,O=C1Nc2c(Cl)cc(Cl)cc2C1(O)c1sc(NC2CCCCC2)nc1-c1ccccc1 (centres undefined),31.2 µM
22,CS(=O)(=O)NC1CCCN(C(=O)Nc2cccc3ccccc23)C1 (centres undefined),> 50 µM (inactive)
23,Cc1cc(NC(=O)c2[nH]nc3c2CCc2ccccc2-3)no1,4.47 µM
24,O=C(Cn1c(=O)n(Cc2ccc(F)cc2)c(=O)c2sccc21)Nc1cccc(Cl)c1,4.47 µM

row,SMILES,IC50
1,COc1ccccc1CNC(=O)Nc1cccc2ccccc12,25.9 µM
2,O=C(Cn1ncc2c(N3CCCCCC3)ncnc21)NCc1ccccc1,> 50 µM (inactive)
3,CCC1OC(O)(C(C)C(O)C(C)C2OC(=O)/C(C)=C/C(C)=CC(C)C(O)C(C)C/C(C)=C/C=C/C2OC)CC(OC(=O)/C=C/C(=O)NC2=C(O)CCC2=O)C1C (centres undefined),> 50 µM (inactive)
4,O=C(c1cc(-c2ccc(Cl)cc2)n[nH]1)N1CCN(C(=O)c2ccco2)CC1,31.7 µM
5,Cc1cc(C(F)(F)F)n2nc(C3CCN(C(=O)c4cnn(C)c4C)C3)cc2n1 (centres undefined),> 50 µM (inactive)
6,O=C(NC1CCS(=O)(=O)C1)c1ccc(N2CCC(Cc3ccccc3)CC2)nn1 (centres undefined),> 50 µM (inactive)
7,O=C(NC1CCN(Cc2ccccc2)CC1)c1[nH]nc2c1CCc1ccccc1-2,> 50 µM (inactive)
8,O=C(c1ccc(Cl)cc1)c1c[nH]cc1-c1c(F)cccc1Cl,19 µM
9,O=C(NCc1nc(-c2ccc3c(c2)[nH]c(=O)n3C2CCCC2)no1)c1ccccc1,> 50 µM (inactive)
10,Cc1ccccc1-c1noc(-c2ccccc2OCC(=O)NC(C)C)n1,> 50 µM (inactive)
11,COCCNC(=O)c1cc(-c2cn(-c3ccccn3)c(C)n2)n2ccccc12,> 50 µM (inactive)
12,Cc1nn(-c2ccccc2)c(C)c1C(=O)OCC(=O)Nc1cccc(C#N)c1,> 50 µM (inactive)
13,O=C(NCc1ccccc1Cl)C1CCCN(c2nc3ccsc3c(=O)s2)C1 (centres undefined),0.965 µM
14,Cc1ccc(C(=O)NCCc2nc(-c3ccc4c(c3)OCO4)n[nH]2)cc1F,41.6 µM
15,CCCCCCCCCC(CCCCCCCCCC(=O)O)O[C@H]1O[C@@H](COC(C)=O)[C@H](O)[C@@H](O)[C@H]1OC(=O)CC(=O)O (some centres undefined),21.7 µM
16,O=C(NCc1ccc2c(c1)OCO2)c1ccc(C2SCC(=O)N2Cc2ccco2)cc1 (centres undefined),> 50 µM (inactive)
17,COc1cc2c(=O)n(CCC(=O)NCc3ccco3)c(=O)n(CC(=O)Nc3c(C)cccc3C)c2cc1OC,> 50 µM (inactive)
18,COc1ccc2c(C)c(CC(=O)N3CCC[C@H]3C(=O)O)c(=O)oc2c1C,45 µM
19,COc1cc(Cl)ccc1Oc1ncnc2sc(C)c(C)c12,> 50 µM (inactive)
20,Cc1ccc2[nH]c(=O)c(CN(Cc3cccnc3)C(=O)c3cccc(Cl)c3)cc2c1,> 50 µM (inactive)
21,Cc1ccccc1NC(=O)C(C)n1c(=O)cc(-c2ccccc2)c2c(C)nn(C)c21 (centres undefined),2.45 µM
22,COc1cccc(CCNC(=O)CCn2c(=O)c(C)nc3cc(C)c(C)cc32)c1,> 50 µM (inactive)
23,O=C(OC1CSc2nc3ccccc3n2C1)c1ccc([N+](=O)[O-])o1 (centres undefined),43.1 µM
24,CCS(=O)(=O)c1ccccc1C(=O)Nc1ccc2sc(C)nc2c1,> 50 µM (inactive)

row,SMILES,IC50
1,Cc1c(-c2nsc(NC(=O)c3ccc(Cl)cc3)n2)nnn1-c1ccccc1F,0.488 µM
2,Cc1ccc2c(C)nc(Nc3ncc4c(n3)CC(c3ccco3)CC4=O)nc2c1 (centres undefined),< 0.05 µM
3,CC1(C(=O)NC2CCCC2)Cn2c(cc3ccccc32)C(=O)N1c1ccc(F)cc1 (centres undefined),> 50 µM (inactive)
4,O=c1c2ccccc2c(-c2nc(-c3ccncc3)no2)cn1-c1ccccc1,2.54 µM
5,COCCCN1CCS(=O)(=O)c2c(Cl)c(F)nc(Oc3ccccc3F)c21,> 50 µM (inactive)
6,O=[N+]([O-])c1ccccc1C(c1c[nH]c2ccccc12)c1c[nH]c2ccccc12,> 50 µM (inactive)
7,CC(C)CC(=O)Nc1cc(F)c2nc(N3CCOCC3)ccc2c1,> 50 µM (inactive)
8,Cc1ccc(C(=O)NCc2ccc(C(=O)Nc3ccc(C)c(C)c3)o2)cc1,21.4 µM
9,CCCCCCCc1cc(O)cc(O)c1,38.9 µM
10,Cc1cc(C)n(-c2ccc(C(=O)NCc3ccc(F)cc3)cn2)n1,37.4 µM
11,Cc1cc(-c2nnc(SCC(=O)Nc3ccc(Br)c(C)c3)n2N)n[nH]1,16.1 µM
12,O=C(Nc1ccccc1)c1cn(-c2cc(N3CCCC3)ncn2)cn1,> 50 µM (inactive)
13,CC1(C)OC2=C(C(=O)c3cc(O)cc(O)c3C2=O)c2cc(CO)c(O)cc21,> 50 µM (inactive)
14,COc1ccc(-c2nc3n(n2)C(CC(=O)Nc2cccc4ccccc24)C(=O)N3)cc1 (centres undefined),2.87 µM
15,CCc1cccc2c(C(=O)COc3ccc(C#N)cc3)c[nH]c12,11.3 µM
16,COc1ccc(-c2cc3nc([C@@H](C)NC(=O)c4ccc5c(c4)OCO5)nn3cn2)cc1,> 50 µM (inactive)
17,COc1ccc2cc3c(nc2c1)OC(=O)N(CCc1cccc(F)c1)C3,0.0686 µM
18,COc1ccc(Cl)cc1N1C(=O)[C@H]2[C@@H](C1=O)[C@]1(C(=O)Nc3c(C)cc(C)cc31)N1CCC[C@@H]21,> 50 µM (inactive)
19,CCOc1ccc(NC(=O)COc2cccc3c2CCN(CC)C3=O)cc1,> 50 µM (inactive)
20,CS(=O)(=O)N1CCCN(c2nc3cc(Cl)ccc3n3cccc23)CC1,> 50 µM (inactive)
21,CC(C(=O)NCCc1ccccc1)n1nc(-c2ccccc2)c2cc(Cl)ccc21 (centres undefined),25.4 µM
22,c1ccc(-n2nnc(-c3noc(-c4ccccn4)n3)c2-c2ccncc2)cc1,25.4 µM
